In the first experiment the test system is platelet aggregation. Briefly: Platelet aggregation inhibitory activity (ADP-induced, human platelet rich plasma). Format: cell-based. The conditions noted are these: Homo sapiens, Table 2, same manner as Example 17. As to the method:
The blood was collected from the elbow vein of a normal volunteer with mixing thereof with 1/10 volume of 3.8% sodium citrate, and the blood was centrifuged at 1000 rpm (150 g) for 10 minutes to give the supernatant as platelet rich plasma (PRP). To PRP (200 μl) was added a test compound solution (2 μl), and the mixture was incubated with stirring at 1000 rpm at 37° C. for two minutes, and thereto was added a platelet aggregator, adenosine diphosphate (ADP, 22 μl) at a final concentration of 3 μg/ml. The platelet aggregation activity was determined by nephelometric analysis using a Hematracer (manufactured by Niko Bioscience, Ltd.). The test results of platelet aggregation inhibitory activity are expressed by IC50, which is a concentration of the test compound being required to inhibit the platelet aggregation reaction by 50%.
The compounds of Examples 18 to 70 were tested in the same manner as in Example 17.
The compounds of Examples 72 to 116 were tested in the same manner as in Example 17.
In the case of `CN(C)c1cccc2c(S(=O)(=O)N[C@@H](CNC(=O)CCNC(=O)CCC3CCNCC3)C(=O)O)cccc12` [Example 42, (2S)-2-(5-dimethylamino-1-naphthalene)sulfonylamino-3-(3-(3-(4-piperidyl)propanoylamino)propanoylamino)propanoic Acid], the half-inhibitory concentration (IC50) (as a rule, the concentration needed to halve the response being measured) was found to be 233 nM.
The molecule `O=C(CCC1CCNCC1)NCCC(=O)NC[C@H](NS(=O)(=O)c1ccc2ccccc2c1)C(=O)O` [Example 43, (2S)-2-(2-naphthalene)sulfonylamino-3-(3-(3-(4-piperidyl)propanoylamino)propanoylamino)propanoic Acid] showed an IC50 of 260 nM.
The molecule `CCS(=O)(=O)N[C@@H](CNC(=O)CCNC(=O)CCC1CCNCC1)C(=O)O` [Example 44, (2S)-2-ethanesulfonylamino-3-(3-(3-(4-piperidyl)propanoylamino)propanoylamino)propanoic Acid] returned an IC50 of 263 nM.
Still for that read-out and setting: next, `CCCS(=O)(=O)N[C@@H](CNC(=O)CCNC(=O)CCC1CCNCC1)C(=O)O` [Example 45, (2S)-3-(3-(3-(4-piperidyl)propanoylamino)propanoylamino)-2-propanesulfonylaminopropanoic Acid]: 121 nM; `COc1cc(C)c(S(=O)(=O)N[C@@H](CNC(=O)CCNC(=O)CCC2CCNCC2)C(=O)O)c(C)c1C` [Example 46, (2S)-2-(4-methoxy-2,3,6-trimethyl)benzenesulfonylamino-3-(3-(3-(4-piperidyl)propanoylamino)propanoylamino)propanoic Acid]: 32 nM.
Still for that read-out and setting: for `O=C(CCC1CCNCC1)NCCC(=O)NC[C@H](NS(=O)(=O)c1ccc(OC(F)(F)F)cc1)C(=O)O` [Example 47, (2S)-3-(3-(3-(4-piperidyl)propanoylamino)propanoylamino)-2-(4-trifluoromethoxy)benzenesulfonylaminopropanoic Acid] the value was 238 nM; for `CCCCOc1ccc(S(=O)(=O)N[C@@H](CNC(=O)CCNC(=O)CCC2CCNCC2)C(=O)O)cc1` [Example 48, (2S)-2-(4-butoxy)benzenesulfonylamino-3-(3-(3-(4-piperidyl)propanoylamino)propanoylamino)propanoic Acid], 67 nM; for `CCCc1ccc(S(=O)(=O)N[C@@H](CNC(=O)CCNC(=O)CCC2CCNCC2)C(=O)O)cc1` [Example 49, (2S)-3-(3-(3-(4-piperidyl)propanoylamino)propanoylamino)-2-(4-propyl)benzenesulfonylaminopropanoic Acid], 170 nM.
Regarding `CC(C)c1ccc(S(=O)(=O)N[C@@H](CNC(=O)CCNC(=O)CCC2CCNCC2)C(=O)O)cc1` [Example 50, (2S)-2-(4-isopropyl)benzenesulfonylamino-3-(3-(3-(4-piperidyl)propanoylamino)propanoylamino)propanoic Acid], the IC50 was determined as 203 nM.
Still for that read-out and setting: for `O=C(CCCC1CCNCC1)NCCC(=O)NC[C@H](NS(=O)(=O)c1ccccc1)C(=O)O` [Example 53, (2S)-2-benzenesulfonylamino-3-(3-(4-(4-piperidyl)butanoylamino)propanoylamino)propanoic Acid] the value was 111 nM.
The same measure, in the same setting: next, `O=C(CCCC(=O)NC[C@H](NS(=O)(=O)c1ccccc1)C(=O)O)NCC1CCNCC1` [Example 54, (2S)-2-benzenesulfonylamino-3-(4-(4-piperidylmethylcarbamoyl)butanoylamino)propanoic Acid]: 79 nM.
Still for that read-out and setting: next, `O=C(CCNC(=O)COC1CCNCC1)NC[C@H](NS(=O)(=O)c1ccccc1)C(=O)O` [Example 55, (2S)-2-benzenesulfonylamino-3-(3-(2-(4-piperidyloxy)ethanoylamino)propanoylamino)propanoic Acid]: 300 nM; `CCCCS(=O)(=O)N[C@@H](CNC(=O)CCCOc1ccc(C(=N)N)cc1)C(=O)O` [Example 56, (2S)-3-(4-(4-amidinophenoxy)butanoylamino)-2-butanesulfonylaminopropanoic Acid]: 90 nM; `CCCCS(=O)(=O)N[C@@H](CNC(=O)CCCCOc1ccc(C(=N)N)cc1)C(=O)O` [Example 65, (2S)-3-(5-(4-amidinophenoxy)pentanoylamino)-2-butanesulfonylaminopropanoicAcid]: 79 nM.
With `COc1ccc(S(=O)(=O)N[C@@H](CNC(=O)CCCCc2ccc(C(=N)N)cc2)C(=O)O)cc1` [Example 66, (2S)-3-(5-(4-amidinophenyl)pentanoylamino)-2-(4-methoxy)benzenesulfonylaminopropanoic Acid], it took 16 nM to reach half-maximal inhibition (IC50).
Still for that read-out and setting: for `COc1ccc(S(=O)(=O)N[C@@H](CNC(=O)C2CCCN(C(=O)CCC3CCNCC3)C2)C(=O)O)cc1` (stereo partly drawn) [Example 70, (2S)-2-(4-methoxy)benzenesulfonylamino-3-(1-(3-(4-piperidyl)propanoyl)-3-piperidylcarbonylamino)propanoic Acid] the value was 57 nM.

The same experiment, now with this note: Homo sapiens, Table 3, same manner as Example 17.
For the molecule `COc1cccc2c(S(=O)(=O)N[C@@H](CNC(=O)CCNC(=O)CCC3CCNCC3)C(=O)O)cccc12` [Example 72, (2S)-2-(5-methoxy-1-naphthalene)sulfonylamino-3-(3-(3-(4-piperidyl)propanoylamino)propanoylamino)propanoic Acid], the IC50 was 52 nM.
`N=C(N)c1ccc(C(=O)NCCC(=O)NC[C@@H](NS(=O)(=O)c2ccccc2)C(=O)O)cc1` [Example 73, (2R)-3-(3-(4-amidinobenzoylamino)propanoylamino)-2-benzenesulfonylaminopropanoic Acid] yielded a half-maximal inhibitory concentration (IC50) of 162 nM.
Still for that read-out and setting: next, `N=C(N)c1ccc(C(=O)NCCC(=O)NC[C@H](NS(=O)(=O)c2ccccc2N)C(=O)O)cc1` [Example 81, (2S)-3-(3-(4-amidinobenzoylamino)propanoylamino)-2-(2-amino)benzenesulfonylaminopropanoic Acid]: 28 nM; `N=C(N)c1ccc(OCCCC(=O)NC[C@H](NS(=O)(=O)c2ccccc2N)C(=O)O)cc1` [Example 84, (2S)-3-(4-(4-amidinophenoxy)butanoylamino)-2-(2-amino)benzenesulfonylaminopropanoic Acid]: 22 nM; `N=C(N)c1ccc(CCCCC(=O)NC[C@H](NS(=O)(=O)c2cccc3ccccc23)C(=O)O)cc1` [Example 88, (2S)-3-(5-(4-amidinophenyl)pentanoylamino)-2-(1-naphthalene)sulfonylaminopropanoic Acid]: 44 nM.
The same measure, in the same setting: next, `CCc1ccc(S(=O)(=O)N[C@@H](CNC(=O)CCCCc2ccc(C(=N)N)cc2)C(=O)O)cc1` [Example 89, (2S)-3-(5-(4-amidinophenyl)pentanoylamino)-2-(4-ethyl)benzenesulfonylaminopropanoic Acid]: 26 nM.
The same measure, in the same setting: next, `N=C(N)c1ccc(CCCCC(=O)NC[C@H](NS(=O)(=O)c2ccccc2C(F)(F)F)C(=O)O)cc1` [Example 90, (2S)-3-(5-(4-amidinophenyl)pentanoylamino)-2-(2-trifluoromethyl)benzenesulfonylaminopropanoic Acid]: 15 nM; `N=C(N)c1ccc(C(=O)CCCCC(=O)NC[C@H](NS(=O)(=O)c2ccccc2)C(=O)O)cc1` [Example 94, (2S)-3-(5-(4-amidinobenzoyl)pentanoylamino)-2-benzenesulfonylaminopropanoic Acid]: 31 nM; `CN(CCC(=O)NC[C@H](NS(=O)(=O)c1ccccc1)C(=O)O)C(=O)c1ccc(C(=N)N)cc1` [Example 96, (2S)-3-(3-(4-amidinobenzoylmethylamino)propanoylamino)-2-benzensulfonylaminopropanoic Acid]: 57 nM.
`CCc1ccc(S(=O)(=O)N[C@@H](CNC(=O)CCN(C)C(=O)c2ccc(C(=N)N)cc2)C(=O)O)cc1` [Example 97, (2S)-3-(3-(4-amidinobenzoylmethylamino)propanoylamino)-2-(4-ethyl)benzenesulfonylaminopropanoic Acid] gave an IC50 of 49 nM.
Molecule `N=C(NN)c1ccc(C(=O)NCCC(=O)NC[C@H](NS(=O)(=O)c2ccccc2)C(=O)O)cc1` [Example 101, (2S)-2-benzenesulfonylamino-3-(3-(4-hydrazinoiminobenzoylamino)propanoylamino)propanoic Acid] registered a 50% inhibitory concentration (IC50) of 103 nM.
Molecule `CC(=O)NNC(=N)c1ccc(C(=O)NCCC(=O)NC[C@H](NS(=O)(=O)c2ccccc2)C(=O)O)cc1` [Example 102, (2S)-2-benzenesulfonylamino-3-(3-(4-acetylhydrazinoiminobenzoylamino)propanoylamino)propanoic Acid] displayed an IC50 of 35 nM.
Same read-out and setting: next, `CCCCNC(=N)c1ccc(C(=O)NCCC(=O)NC[C@H](NS(=O)(=O)c2ccccc2)C(=O)O)cc1` [Example 103, (2S)-2-benzenesulfonylamino-3-(3-(4-(N-n-butylamidino)benzoylamino)propanoylamino)propanoic Acid]: 25 nM.
Still for that read-out and setting: next, `CCCCCCNC(=N)c1ccc(C(=O)NCCC(=O)NC[C@H](NS(=O)(=O)c2ccccc2)C(=O)O)cc1` [Example 104, (2S)-2-benzenesulfonylamino-3-(3-(4-(N-n-hexylamidino)benzoylamino)propanoylamino)propanoic Acid]: 28 nM; `N=C(NC1CCCCC1)c1ccc(C(=O)NCCC(=O)NC[C@H](NS(=O)(=O)c2ccccc2)C(=O)O)cc1` [Example 105, (2S)-2-benzenesulfonylamino-3-(3-(4-(N-cyclohexylamidino)benzoylamino)propanoylamino)propanoic Acid]: 22 nM; `N=C(NCc1ccccc1)c1ccc(C(=O)NCCC(=O)NC[C@H](NS(=O)(=O)c2ccccc2)C(=O)O)cc1` [Example 106, (2S)-2-benzenesulfonylamino-3-(3-(4-(N-benzylamidino)benzoylamino)propanoylamino)propanoic Acid]: 116 nM.

These data come from patent publication US6048854A, “2,3-diaminopropionic acid derivative” (Sumitomo Pharmaceuticals Company, Limited, priority 1993, dated 2000).
